Assay results: patent publication EP1059033A1, “INDUSTRIAL ANTIBACTERIAL/ANTIFUNGAL AGENTS, ALGICIDES AND ANTI-BIOLOGICAL ADHESION AGENTS CONTAINING BENZYLAMINES” (Nissan Chemical Industries, Ltd., priority 1998, dated 1999)
Values after ≈ are worked out from the molar mass of the structure shown. Like-named read-outs stand apart in the source and are kept apart here.

Tests used:
[1] = tested on: freshwater green alga (Selenastrum capricornutum); test: Inhibition of propagation of freshwater green alga (Example 4); type: cell-based; conditions: 500ppb, after 72 hours, cell number vs non-treated lot, read-out: Propagation inhibiting rate(%) 500ppb
Procedure: A predetermined amount of each of the compounds of the invention was dissolved in a culture medium containing 10^5 /ml of a freshwater green alga (Selenastrum capricornutum) at a logarithmic growth phase to prepare samples having a concentration of the compound of the invention in the medium of 500 ppb and 50ppb respectively. The samples were stationary cultured at 23±1 °C for […] under continuous illumination.
After 72 hours, the number of cells was measured using a hemacytometer to obtain propagation rate. The propagation inhibiting rate was calculated from comparison with the non-treated lot.

[2] = tested on: Aspergillus niger; test: Agar dilution MIC (Example 3); type: cell-based; conditions: 168 h, agar plate, 27 °C, 7 days
Procedure: (§1) Series of diluted samples (20000, 10000, 5000, 2500, 1250, 625, 313, 156, 78, 39 mg/l) of the compounds of the invention were prepared using dimethylsulfoxide. A sensitive culture medium-N (Nissui Seiyaku Co.) was used for bacteria and a potato dextrose agar culture medium (Nissui Seiyaku Co.) was used for fungi. 0.5 ml of each sample was added to and mixed with 9.5 ml of the culture medium, poured into a Petri dish and solidified to obtain a plate. As a result, the concentration of the compounds of the invention in the agar culture medium were 1000, 500, 250, 125, 62.5, 31.3, 15.6, 7.8, 3.9, 2.0 mg/l. The bacterium inoculated were cultured in a bouillon for the assay of sensitivity (Nissui Seiyaku Co.) at 37 °C for 20 hours, and the fungi were cultured in the potato dextrose agar culture medium (Nissui Seiyaku Co.) for 10 days and then a 10^6 CFU/ml suspension was prepared from each of them. A test bacteria or fungi suspension was streaked on an agar plate containing the compound of the present invention with platinum wire loop, and the agar plate was cultured at 37±1 °C for 18 to 20 hours for bacteria or at 27 °C for 7 days for fungi. A concentration at which no growth was seen was taken as minimum inhibitory concentration (MIC). Symbols in the tables mean the followings; • A: Bacillus subtilis, • B: Trichophyton mentagrophytes, • C: Staphylococcus aureus, • D: Aspergillus niger, • E: Penicillium funiculosum, • F: Candida albicans, • G: Micrococcus luteus, • H: Corynebacterium aquaticum, • I: Chaetomium globosum, • J: Fusarium moniliforme, • K: Saccharomyces cerevisiae, • L: Rhodotorula rubra, • M: Cladosporium cladosporioides, • N: Alternaria alternata.

[3] = tested on: Rhodotorula rubra; test: Agar dilution MIC (Example 3); type: cell-based; conditions: 168 h, agar plate, 27 °C, 7 days
Procedure: as §1

[4] = tested on: Saccharomyces cerevisiae; test: Agar dilution MIC (Example 3); type: cell-based; conditions: 168 h, agar plate, 27 °C, 7 days
Procedure: as §1

[5] = tested on: Corynebacterium aquaticum; test: Agar dilution MIC (Example 3); type: cell-based; conditions: Leifsonia aquatica, agar plate, 37±1 °C, 18 to 20 hours
Procedure: as §1

[6] = tested on: Fusarium moniliforme; test: Agar dilution MIC (Example 3); type: cell-based; conditions: Fusarium verticillioides, 168 h, agar plate, 27 °C, 7 days
Procedure: as §1

[7] = tested on: Alternaria alternata; test: Agar dilution MIC (Example 3); type: cell-based; conditions: 168 h, agar plate, 27 °C, 7 days
Procedure: as §1

[8] = tested on: Chaetomium globosum; test: Agar dilution MIC (Example 3); type: cell-based; conditions: 168 h, agar plate, 27 °C, 7 days
Procedure: as §1

[9] = tested on: Penicillium funiculosum; test: Agar dilution MIC (Example 3); type: cell-based; conditions: Talaromyces funiculosus, 168 h, agar plate, 27 °C, 7 days
Procedure: as §1

[10] = tested on: Cladosporium cladosporioides; test: Agar dilution MIC (Example 3); type: cell-based; conditions: 168 h, agar plate, 27 °C, 7 days
Procedure: as §1

[11] = tested on: Trichophyton mentagrophytes; type: cell-based; conditions: 72 h, 100 ppm
Procedure: 31.3 ml of Trichophyton mentagrophytes to be tested was added to 125 ml of a potato dextrose agar culture medium (Nissui Seiyaku Co.). The medium was stirred not to foam the solutions, poured into plates uniformly and solidified.
Thereafter, predetermined amounts of the compounds of the invention were weighted and diluted with acetone to predetermined concentrations.
Paper disks were impregnated with samples containing predetermined amounts of the compounds of the invention, laid on a filter, dried with air and placed on a plate containing test microbe at equal intervals.
Trichophyton mentagrophytes was cultured at 28 °C for 3 days in a thermostatic chamber and the diameter of each inhibiting zone was measured to evaluate the activity of each compound. Symbols in the table mean the followings; • A: Trichophyton mentagrophytes, • ++: strongly inhibiting zone (equal to or more than 21 mm) is observed, • +: inhibiting zone (10 to 20 mm) is observed, • -: no inhibiting zone is observed.

[12] = tested on: freshwater blue-green alga (Microcystis aeruginosa); test: Inhibition of propagation of freshwater algae (Example 6); type: cell-based; conditions: 500ppb
Procedure: (§2) A predetermined amount each of the compounds of the invention was dissolved in a culture medium containing 10^5 /ml of a freshwater alga at a logarithmic growth phase to prepare samples having a concentration of the compound of the invention in the medium of 500 ppb and 50 ppb respectively. A shaking culture at 100 rpm was performed for […] under continuous illumination at 20±2 °C for freshwater diatom and at 23±2 °C for other algae.
(§3) After 72 hours and 168 hours, the […] of cells was measured using a hemacytometer to obtain propagation rate. The propagation inhibiting rate was calculated from comparison with the non-treated lot. Symbols in the tables mean the followings; • A: freshwater green alga (Chlorella pyrenoidosa), • B: freshwater blue-green alga (Microcystis aeruginosa), • C: freshwater diatom (Diatoma elongatum), • D: freshwater green alga (Scenedesmus pannonicus).

[13] = tested on: freshwater green alga (Scenedesmus pannonicus); test: as above; type: cell-based; conditions: Desmodesmus pannonicus, 500ppb
Procedure: as §2, §3

[14] = tested on: freshwater green alga (Chlorella pyrenoidosa); test: as above; type: cell-based; conditions: Auxenochlorella pyrenoidosa, 500ppb, 168hr, read-out: Propagation inhibiting rate(%) 500ppb 168hr
Procedure: as §2, §3

[15] = tested on: Trichophyton mentagrophytes; test: Agar dilution MIC (Example 2); type: cell-based; conditions: 168 h, agar plate, 27 °C, 7 days
Procedure: (§4) Series of diluted samples (20000, 10000, 5000, 2500, 2000, 1250, 625, 313, 156, 78, 39, 20, 10, 5, 2.5, 1.25 mg/l) of the compounds of the invention were prepared using dimethylsulfoxide. A sensitive culture medium-N (Nissui Seiyaku Co.) was used for bacteria and a potato dextrose agar culture medium (Nissui Seiyaku Co.) was used for fungi. 0.5 ml of each sample was added to and mixed with 9.5 ml of the culture medium, poured into a Petri dish and solidified to obtain a plate. As a result, the concentration of the compounds of the invention in the agar culture medium were 1000, 500, 250, 125, 100, 62.5, 31.3, 15.6, 7.8, 3.9, 2.0, 1.0, 0.5, 0.25, 0.125, 0.062 mg/l. The bacterium inoculated were cultured in a bouillon for the assay of sensitivity (Nissui Seiyaku Co.) at 37 °C for 20 hours, and the fungi were cultured in the potato dextrose agar culture medium (Nissui Seiyaku Co.) for 10 days and then a 10^6 CFU/ml suspension was prepared from each of them. A test bacteria or fungi suspension was streaked on an agar plate containing the compound of the present invention with platinum wire loop, and the agar plate was cultured at 37±1 °C for 18 to 20 hours for bacteria or at 27 °C for 7 days for fungi. A concentration at which no growth was seen was taken as minimum inhibitory concentration [MIC(mg/l)]. Symbols in the table mean the followings; • A: Bacillus subtilis, • B: Trichophyton mentagrophytes, • C: Rhodotorula mucilaginosa.

[16] = tested on: Trichophyton mentagrophytes; test: Agar dilution MIC (Example 3); type: cell-based; conditions: 168 h, agar plate, 27 °C, 7 days
Procedure: as §1

[17] = tested on: blue mussel; test: Antifouling (adhesion repellent) activity against blue mussel (Example 7); type: in vivo, Mytilus edulis; parameters: key: ++: not adhered in the zone and strong repellent effect is observed; +: adhesion in zone is observed but most of them adhered out of zone and repellent effect is observed; -: adhered in and out of zone alike and repellent effect is not observed; conditions: seawater, dark, 3 hours
Procedure: The compound of the invention was completely dissolved in 1 ml of acetone and the resulting solution was uniformly applied to a 4 cm-diameter zone drawn on a test plate. A zone coated with acetone alone as blank and zones coated with 1.0 mg and 0.5 mg of copper sulfate as a comparison chemical were also prepared. After drying, four blue mussel having a shell length of about 2 to 2.5 cm were adhered around each zone using a rubber piece as a spacer. The thus prepared test plate was immersed in a water tank to which seawater ran and left to stand in the dark for 3 hours.
The adhesion controlling effect (adhesion repellent activity) was obtained from comparison with copper sulfate used as a comparison chemical.
The evaluation of adhesion repellent activity was based on "Evaluation method of adhesion repellent substance to marine adhesion organisms using Mytilus edulis" written by Kazuo Ina and Hideo Etoh (Chemistry and Biology, vol.28 (No.2), pp.132-138, 1990).
Symbols in the table mean the followings; • ++: not adhered in the zone and strong repellent effect is observed, • +: adhesion in zone is observed but most of them adhered out of zone and repellent effect is observed, • -: adhered in and out of zone alike and repellent effect is not observed.

[18] = tested on: seawater diatom [Nitzschia closterium]; test: Inhibition of propagation of seawater diatom (Example 5); type: cell-based; conditions: Cylindrotheca closterium, 72 h, read-out: Propagation inhibiting rate(%) 500ppb
Procedure: A predetermined amount of each of the compounds of the invention was dissolved in culture media containing 10^5 /ml of a seawater diatom [Nitzschia closterium] at a logarithmic growth phase to prepare samples having a concentration of the compound in the medium of 500 ppb. The samples were stationary cultured at 22±1 °C for […] under continuous illumination.
After 72 hours, cells were collected by centrifugation and disrupted by addition of methanol to extract chlorophyll, and the amount of chlorophyll was measured from absorbance using a spectrophotometer to obtain propagation rate. The propagation inhibiting rate was calculated from comparison with the non-treated lot.

[19] = tested on: Bacillus subtilis; test: Agar dilution MIC (Example 2); type: cell-based; conditions: agar plate, 37±1 °C, 18 to 20 hours
Procedure: as §4

[20] = tested on: Rhodotorula mucilaginosa; test: Agar dilution MIC (Example 2); type: cell-based; conditions: 168 h, agar plate, 27 °C, 7 days
Procedure: as §4

[21] = 72hr, read-out: Propagation inhibiting rate (%) 500ppb 72hr
[22] = 168hr, read-out: Propagation inhibiting rate (%) 500ppb 168hr

Cc1cccc(C)c1CN(C)Cc1ccc(C(C)(C)C)cc1 [Compound 5]
inhibition at 0.5 ppm [1]: 75% | MIC [2]: < 2 µg/mL | MIC [3]: 63 µg/mL (≈ 213 µM) | MIC [4]: 63 µg/mL (≈ 213 µM) | MIC [5]: 7.8 µg/mL (≈ 26.4 µM) | MIC [6]: 7.8 µg/mL (≈ 26.4 µM) | MIC [7]: 125 µg/mL (≈ 423 µM) | MIC [8]: 15.6 µg/mL (≈ 52.8 µM) | MIC [9]: 15.6 µg/mL (≈ 52.8 µM) | MIC [10]: 31.3 µg/mL (≈ 106 µM) | Judgment (Target bacteria: A) [11]: ++ (strongly inhibiting zone (equal to or more than 21 mm) is observed) | inhibition at 0.5 ppm ([12]; 72hr, read-out: Propagation inhibiting rate(%) 500ppb 72hr): 56% | inhibition at 0.5 ppm ([12]; 168hr, read-out: Propagation inhibiting rate(%) 500ppb 168hr): 62% | inhibition at 0.5 ppm [13, 21]: 76% | inhibition at 0.5 ppm [13, 22]: 78% | inhibition at 0.5 ppm [14]: 62%

CN(Cc1ccc(C(C)(C)C)cc1)C1CCc2ccccc21 (stereo not drawn) [Compound 7]
inhibition at 0.5 ppm [1]: 62% | MIC [15]: 1 µg/mL (≈ 3.41 µM) | MIC [16]: < 2 µg/mL | Judgment (Target bacteria: A) [11]: ++ (strongly inhibiting zone (equal to or more than 21 mm) is observed) | Judgment (adhesion repellent activity against blue mussel) ([17]; Amount of chemical 2.0 mg on 4 cm-diameter zone): ++ | inhibition at 0.5 ppm [18]: 91% | inhibition at 0.5 ppm [13, 21]: 92% | inhibition at 0.5 ppm [13, 22]: 99%

Cc1ccc(C)c(CN(C)Cc2ccc(C(C)(C)C)cc2)c1 [Compound 8]
inhibition at 0.5 ppm [1]: 90% | MIC [2]: 7.8 µg/mL (≈ 26.4 µM) | MIC [3]: 125 µg/mL (≈ 423 µM) | MIC [4]: 125 µg/mL (≈ 423 µM) | MIC [5]: 31.3 µg/mL (≈ 106 µM) | MIC [8]: 63 µg/mL (≈ 213 µM) | MIC [9]: 31.3 µg/mL (≈ 106 µM) | MIC [10]: 63 µg/mL (≈ 213 µM) | Judgment (Target bacteria: A) [11]: ++ (strongly inhibiting zone (equal to or more than 21 mm) is observed) | inhibition at 0.5 ppm [13, 21]: 72% | inhibition at 0.5 ppm [13, 22]: 86% | inhibition at 0.5 ppm [14]: 86%

CN(Cc1ccc(C(C)(C)C)cc1)Cc1c(Cl)cccc1Cl [Compound 19]
MIC [15]: 0.25 µg/mL (≈ 0.743 µM) | MIC [19]: 15.6 µg/mL (≈ 46.4 µM)

Cc1cc(C)c(CN(C)Cc2ccc(C(C)(C)C)cc2)c(C)c1 [Compound 20]
inhibition at 0.5 ppm [1]: 63% | MIC [15]: 2 µg/mL (≈ 6.46 µM) | MIC [20]: 15.6 µg/mL (≈ 50.4 µM) | MIC [2]: 7.8 µg/mL (≈ 25.2 µM) | MIC [3]: 31.3 µg/mL (≈ 101 µM) | MIC [4]: 15.6 µg/mL (≈ 50.4 µM) | MIC [5]: 7.8 µg/mL (≈ 25.2 µM) | MIC [6]: 31.3 µg/mL (≈ 101 µM) | MIC [7]: 15.6 µg/mL (≈ 50.4 µM) | MIC [8]: 31.3 µg/mL (≈ 101 µM) | MIC [9]: 15.6 µg/mL (≈ 50.4 µM)

O=S(=O)([O-])[O-].[Cu+2] [Copper sulfate]
Judgment (adhesion repellent activity against blue mussel) ([17]; Amount of chemical 0.5 mg on 4 cm-diameter zone): - | Judgment (adhesion repellent activity against blue mussel) ([17]; Amount of chemical 1.0 mg on 4 cm-diameter zone): +
